Reference: patent US8247211B2, “Glycopeptide antibiotics” (American Cyanamid Company, priority 2001, dated 2012)

Assays:
Enterococcus sp. = assay: In vitro antibacterial evaluation: minimum inhibitory concentration (MIC), broth dilution method; type: cell-based; settings: broth dilution, 5×10^5 CFU/mL, 18 hours at 35° C.
Method in brief: (§1)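 First, organisms are seeded at 5×10^5 CFU/mL into Muller-Hinton II […]. Next, antibiotic is applied across 64-0.06 μg/mL by broth dilution (NCCLS M7-A2). Finally, the lowest inhibitory concentration is recorded as MIC.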

Escherichia coli = assay: as above; type: cell-based; settings: 5×10^5 CFU/mL, 18 hours at 35° C.
Method in brief: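 NCCLS M7-A2 broth dilution with Mueller-Hinton II, testing 64-0.06 μg/mL antibiotic against 5×10^5 CFU/mL inocula. Test strains include recent methicillin-, penicillin- or vancomycin-resistant clinical isolates. MIC is the lowest concentration preventing growth.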

Staphylococcus sp. = assay: as above; type: cell-based; settings: for MIC Staphylococcus aureus (ATCC 29213): strain ATCC 29213; for MIC Staphylococcus aureus (GC 1131): strain GC 1131; for MIC Staphylococcus aureus (GC 3051): strain GC 3051; for MIC Staphylococcus aureus (GC 3053): strain GC 3053; for MIC Staphylococcus aureus (GC 4541): strain GC 4541; for MIC Staphylococcus aureus (GC 4542): strain GC 4542; for MIC Staphylococcus aureus-SMITH (GC 4543): strain GC 4543; for MIC Staphylococcus aureus (GC 4544): strain GC 4544; for MIC Staphylococcus aureus (GC 4545): strain GC 4545; for MIC Staphylococcus haemolyticus (GC 4546): strain GC 4546; for MIC Coagulase Negative Staphylococcus (GC 4547): strain GC 4547; for MIC Coagulase Negative Staphylococcus (GC 4548): strain GC 4548; for MIC Coagulase Negative Staphylococcus (GC 4549): strain GC 4549; for MIC Coagulase Negative Staphylococcus (GC 4551): strain GC 4551; for MIC Coagulase Negative Staphylococcus (GC 6257): strain GC 6257
Method in brief: as §1

Streptococcus sp. = assay: as above; type: cell-based; settings: broth dilution, 5×10^5 CFU/mL, 18 hours at 35° C.
Method in brief: as §1

[1] = test system: Enterococcus faecalis (GC 6189), vancomycin resistant strain; assay: Acute lethal infection in mice (ED50); type: in vivo; settings: female CD-1 mice, intraperitoneal challenge, intravenous dose 30 min. after infection, 7 day survival ratios
Method in brief: (§2)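 Median effective dose is calculated from 7-day survival ratios pooled across three separate tests. Mice (female CD-1) receive an intraperitoneal bacterial challenge in broth or hog gastric mucin, then intravenous drug 30 min later, five animals per dose level.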

[2] = test system: Staphylococcus aureus-SMITH (GC 4543); assay: Acute lethal infection in mice (ED50); type: in vivo; settings: female CD-1 mice, intraperitoneal challenge, intravenous dose 30 min. after infection, 7 day survival ratios
Method in brief: as §2

[3] = broth dilution, 18 hours at 35° C.

CC(c1ccccc1)C1NC(=O)CNC(=O)C(CO)NC(=O)C(C(O)C2CNC(=N)N2C2OC(CO)C(O)C(O)C2O)NC(=O)C(C(O)C2CNC(=N)N2)NC(=O)C(Cc2ccc(OC3OC(CO)C(OC4OC5COC(C6CC=CCC6)OC5C(O)C4O)C(O)C3O)cc2)NC1=O (stereo not drawn) [Example 115, Cyclo[glycyl-β-methylphenylalanyl-O-[4-O-[4,6-O-(cyclohex-3-en-1-ylmethylene)hexopyranosyl]hexopyranosyl]tyrosyl-3-(2-iminoimidazolidin-4-yl)seryl-3-(3-hexopyranosyl-2-iminoimidazolidin-4-yl)serylseryl]]
0.12 µg/mL: MIC Streptococcus pneumoniae (GC 4565) (Streptococcus sp.)
4 µg/mL: MIC Enterococccus faecalis (GC 4553) (Enterococcus sp.)
32 µg/mL: MIC Escherichia coli (ATCC 25922) (Escherichia coli)
64 µg/mL: MIC Escherichia coli (GC 4559) (Escherichia coli)
0.23 mg/kg: median effective dose (ED50), Staphylococcus aureus-SMITH (GC 4543) [2]
0.36 mg/kg: median effective dose (ED50), Enterococcus faecalis (GC 6189) [1]
0.25 µg/mL: MIC Streptococcus agalactiae (GC 4564) (Streptococcus sp.) | MIC Streptococcus pyogenes (GC 4563) (Streptococcus sp.)
0.5 µg/mL: MIC Staphylococcus aureus (GC 4542) (Staphylococcus sp.) | MIC Staphylococcus aureus (GC 4542) (Staphylococcus sp.; [3]) | MIC Staphylococcus aureus (GC 4545) (Staphylococcus sp.) | MIC Staphylococcus aureus (GC 4545) (Staphylococcus sp.; [3]) | MIC Staphylococcus haemolyticus (GC 4546) (Staphylococcus sp.) | MIC Staphylococcus haemolyticus (GC 4546) (Staphylococcus sp.; [3]) | MIC Coagulase Negative Staphylococcus (GC 4548) (Staphylococcus sp.) | MIC Coagulase Negative Staphylococcus (GC 4548) (Staphylococcus sp.; [3]) | MIC Coagulase Negative Staphylococcus (GC 6257) (Staphylococcus sp.) | MIC Coagulase Negative Staphylococcus (GC 6257) (Staphylococcus sp.; [3])
2 µg/mL: MIC Enterococccus avium (GC 4558) (Enterococcus sp.) | MIC Enterococccus faecalis (ATCC 29212) (Enterococcus sp.) | MIC Enterococccus faecalis (GC 2691) (Enterococcus sp.) | MIC Enterococccus faecalis (GC 3059) (Enterococcus sp.) | MIC Enterococccus faecalis (GC 4552) (Enterococcus sp.) | MIC Enterococccus faecalis (GC 4554) (Enterococcus sp.) | MIC Enterococccus faecalis (GC 6189) (Enterococcus sp.) | MIC Enterococccus faecium (GC 2243) (Enterococcus sp.) | MIC Enterococccus faecium (GC 4556) (Enterococcus sp.) | MIC Enterococccus faecium (GC 4557) (Enterococcus sp.) | MIC Enterococcus faecalis (GC 2242) (Enterococcus sp.)
<0.06 µg/mL: MIC Streptococcus pneumoniae (GC 1894) (Streptococcus sp.) | MIC Streptococcus pneumonine (ATCC 6301) (Streptococcus sp.)
1 µg/mL: MIC Escherichia coli (GC 4560) (Escherichia coli) | MIC Staphylococcus aureus (ATCC 29213) (Staphylococcus sp.) | MIC Staphylococcus aureus (ATCC 29213) (Staphylococcus sp.; [3]) | MIC Staphylococcus aureus (GC 1131) (Staphylococcus sp.) | MIC Staphylococcus aureus (GC 1131) (Staphylococcus sp.; [3]) | MIC Staphylococcus aureus (GC 3051) (Staphylococcus sp.) | MIC Staphylococcus aureus (GC 3051) (Staphylococcus sp.; [3]) | MIC Staphylococcus aureus (GC 3053) (Staphylococcus sp.) | MIC Staphylococcus aureus (GC 3053) (Staphylococcus sp.; [3]) | MIC Staphylococcus aureus (GC 4541) (Staphylococcus sp.) | MIC Staphylococcus aureus (GC 4541) (Staphylococcus sp.; [3]) | MIC Staphylococcus aureus-SMITH (GC 4543) (Staphylococcus sp.; 18 hours at 35° C.) | MIC Staphylococcus aureus-SMITH (GC 4543) (Staphylococcus sp.; [3]) | MIC Staphylococcus aureus (GC 4544) (Staphylococcus sp.) | MIC Staphylococcus aureus (GC 4544) (Staphylococcus sp.; [3]) | MIC Coagulase Negative Staphylococcus (GC 4547) (Staphylococcus sp.) | MIC Coagulase Negative Staphylococcus (GC 4547) (Staphylococcus sp.; [3]) | MIC Coagulase Negative Staphylococcus (GC 4549) (Staphylococcus sp.) | MIC Coagulase Negative Staphylococcus (GC 4549) (Staphylococcus sp.; [3]) | MIC Coagulase Negative Staphylococcus (GC 4551) (Staphylococcus sp.) | MIC Coagulase Negative Staphylococcus (GC 4551) (Staphylococcus sp.; [3])

Cc1ccc(CC2OCC3OC(OC4C(CO)OC(Oc5ccc(CC6NC(=O)C(C(C)c7ccccc7)NC(=O)CNC(=O)C(CO)NC(=O)C(C(O)C7CNC(=N)N7C7OC(CO)C(O)C(O)C7O)NC(=O)C(C(O)C7CNC(=N)N7)NC6=O)cc5)C(O)C4O)C(O)C(O)C3O2)cc1 (stereo not drawn) [Example 119, Cyclo[glycyl-β-methylphenylalanyl-O-[4-O-[4,6-O-(4-methylphenethylidene)hexopyranosyl]-hexopyranosyl]tyrosyl-3-(2-iminoimidazolidin-4-yl)seryl-3-(3-hexopyranosyl-2-iminoimidazolidin-4-yl)serylseryl]]
2 µg/mL: MIC Enterococccus faecalis (ATCC 29212) (Enterococcus sp.) | MIC Enterococccus faecalis (GC 2691) (Enterococcus sp.) | MIC Enterococccus faecalis (GC 4552) (Enterococcus sp.) | MIC Enterococccus faecalis (GC 4554) (Enterococcus sp.) | MIC Enterococccus faecalis (GC 6189) (Enterococcus sp.) | MIC Enterococccus faecium (GC 4556) (Enterococcus sp.) | MIC Enterococcus faecalis (GC 2242) (Enterococcus sp.) | MIC Staphylococcus aureus (GC 3053) (Staphylococcus sp.) | MIC Staphylococcus aureus (GC 3053) (Staphylococcus sp.; [3])
0.41 mg/kg: median effective dose (ED50), Enterococcus faecalis (GC 6189) [1]
<0.5 µg/mL: MIC Coagulase Negative Staphylococcus (GC 6257) (Staphylococcus sp.) | MIC Coagulase Negative Staphylococcus (GC 6257) (Staphylococcus sp.; [3]) | MIC Streptococcus agalactiae (GC 4564) (Streptococcus sp.) | MIC Streptococcus pneumoniae (GC 1894) (Streptococcus sp.) | MIC Streptococcus pneumonine (ATCC 6301) (Streptococcus sp.) | MIC Streptococcus pyogenes (GC 4563) (Streptococcus sp.)
0.19 mg/kg: median effective dose (ED50), Staphylococcus aureus-SMITH (GC 4543) [2]
>64 µg/mL: MIC Enterococccus faecalis (GC 3059) (Enterococcus sp.)
32 µg/mL: MIC Escherichia coli (ATCC 25922) (Escherichia coli) | MIC Escherichia coli (GC 4559) (Escherichia coli)
4 µg/mL: MIC Enterococccus avium (GC 4558) (Enterococcus sp.) | MIC Enterococccus faecalis (GC 4553) (Enterococcus sp.) | MIC Enterococccus faecium (GC 2243) (Enterococcus sp.)
1 µg/mL: MIC Enterococccus faecium (GC 4557) (Enterococcus sp.) | MIC Escherichia coli (GC 4560) (Escherichia coli) | MIC Staphylococcus aureus (ATCC 29213) (Staphylococcus sp.) | MIC Staphylococcus aureus (ATCC 29213) (Staphylococcus sp.; [3]) | MIC Staphylococcus aureus (GC 1131) (Staphylococcus sp.) | MIC Staphylococcus aureus (GC 1131) (Staphylococcus sp.; [3]) | MIC Staphylococcus aureus (GC 3051) (Staphylococcus sp.) | MIC Staphylococcus aureus (GC 3051) (Staphylococcus sp.; [3]) | MIC Staphylococcus aureus (GC 4541) (Staphylococcus sp.) | MIC Staphylococcus aureus (GC 4541) (Staphylococcus sp.; [3]) | MIC Staphylococcus aureus (GC 4542) (Staphylococcus sp.) | MIC Staphylococcus aureus (GC 4542) (Staphylococcus sp.; [3]) | MIC Staphylococcus aureus-SMITH (GC 4543) (Staphylococcus sp.; 18 hours at 35° C.) | MIC Staphylococcus aureus-SMITH (GC 4543) (Staphylococcus sp.; [3]) | MIC Staphylococcus aureus (GC 4544) (Staphylococcus sp.) | MIC Staphylococcus aureus (GC 4544) (Staphylococcus sp.; [3]) | MIC Staphylococcus aureus (GC 4545) (Staphylococcus sp.) | MIC Staphylococcus aureus (GC 4545) (Staphylococcus sp.; [3]) | MIC Staphylococcus haemolyticus (GC 4546) (Staphylococcus sp.) | MIC Staphylococcus haemolyticus (GC 4546) (Staphylococcus sp.; [3]) | MIC Coagulase Negative Staphylococcus (GC 4547) (Staphylococcus sp.) | MIC Coagulase Negative Staphylococcus (GC 4547) (Staphylococcus sp.; [3]) | MIC Coagulase Negative Staphylococcus (GC 4548) (Staphylococcus sp.) | MIC Coagulase Negative Staphylococcus (GC 4548) (Staphylococcus sp.; [3]) | MIC Coagulase Negative Staphylococcus (GC 4549) (Staphylococcus sp.) | MIC Coagulase Negative Staphylococcus (GC 4549) (Staphylococcus sp.; [3]) | MIC Coagulase Negative Staphylococcus (GC 4551) (Staphylococcus sp.) | MIC Coagulase Negative Staphylococcus (GC 4551) (Staphylococcus sp.; [3]) | MIC Streptococcus pneumoniae (GC 4565) (Streptococcus sp.)
